Our source for the IC50 values is BindingDB's records for doi:10.1016/j.bmcl.2012.03.106 (Syngenta Crop Protection Muenchwilen, 2012).

The test in a line: Displacement of [3H]-Tritium-N-(4-chloro-2-methyl-6-(methylcarbamoyl)phenyl)-1-(3-chloropyridin-2-yl)-3-(trifluoromethyl)-1H-pyrazole-5-carboxamide from Myzus persicae (green peach aphid) ryanodine receptor. A general note: Displacement assays read how much labelled ligand stays bound in the presence of the test substance.
`Cc1cc(C#N)cc(C(=O)NC(C)(C)CS(C)(=N)=O)c1NC(=O)c1cc(Br)nn1-c1ncccc1Cl` (stereo unspecified) registered a half-inhibitory concentration (IC50) of 18.5 µM.
`Cc1cc(C#N)cc(C(=O)NC(C)(C)CS(C)(=O)=NC#N)c1NC(=O)c1cc(Br)nn1-c1ncccc1Cl` (stereo unspecified) had an IC50 of 8.09 µM.
The same measure for `Cc1cc(Cl)cc(C(=O)NC(C)(C)CS(C)(=O)=NC#N)c1NC(=O)c1cc(C(F)(F)F)nn1-c1ncccc1Cl` (stereo unspecified): 4.86 µM; for `CNC(=O)c1cc(Cl)cc(C)c1NC(=O)c1cc(Br)nn1-c1ncccc1Cl` [3-bromo-N-(4-chloro-2-methyl-6-(methylcarbamoyl)phenyl)-1-(3-chloropyridin-2-yl)-1H-pyrazole-5-carboxamide]: 4.13 µM; for `Cc1cc(C(F)(C(F)(F)F)C(F)(F)F)ccc1NC(=O)c1cccc(I)c1C(=O)NC(C)(C)CS(C)(=O)=O` [CHEBI:38798]: 83.5 µM.
The same measure for `CNC(=O)c1cc(C#N)cc(C)c1NC(=O)c1cc(Br)nn1-c1ncccc1Cl` [CYANTRANILIPROLE]: 2.11 µM.

Broadly, the IC50 is the concentration needed to halve the response being measured. The low end stands for greater potency in that assay, the high end for weaker potency in that assay.
